ChEMBL document CHEMBL1201862, “PubChem BioAssay data set” (2004)
Activity calls are given as the source filed them.

Columns and labels:
[1] = target: T1, Nuclear receptor subfamily 0 group B member 1 (Homo sapiens, UniProt P51843); assay type: functional, cell-based;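 further: HEK293T cells transfected with SF-1 and DAX-1 plus StAR promoter luciferase reporter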
T1 sequence (P51843 whole entry): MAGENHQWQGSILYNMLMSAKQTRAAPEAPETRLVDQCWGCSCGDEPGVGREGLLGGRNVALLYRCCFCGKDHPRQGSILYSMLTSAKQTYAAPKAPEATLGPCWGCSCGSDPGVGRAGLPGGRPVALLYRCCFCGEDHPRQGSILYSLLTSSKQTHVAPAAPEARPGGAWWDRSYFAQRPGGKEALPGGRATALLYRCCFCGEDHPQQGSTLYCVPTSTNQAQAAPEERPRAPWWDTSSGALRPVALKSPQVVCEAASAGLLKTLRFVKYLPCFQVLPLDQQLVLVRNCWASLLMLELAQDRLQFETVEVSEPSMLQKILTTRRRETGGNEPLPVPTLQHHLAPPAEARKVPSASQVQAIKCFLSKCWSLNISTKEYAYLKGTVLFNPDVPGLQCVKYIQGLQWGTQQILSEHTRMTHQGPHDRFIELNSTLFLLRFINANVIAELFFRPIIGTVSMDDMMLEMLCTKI

[2] = cells; assay type: functional, cell-based
[3] = target: T2, Trace amine-associated receptor 1 (Homo sapiens, UniProt Q96RJ0); experiment: Fluorescence-based cell-based high throughput dose response assay to identify agonists of the human trace amine associated receptor 1 (TAAR1).; assay type: functional
T2 sequence (Q96RJ0 whole entry): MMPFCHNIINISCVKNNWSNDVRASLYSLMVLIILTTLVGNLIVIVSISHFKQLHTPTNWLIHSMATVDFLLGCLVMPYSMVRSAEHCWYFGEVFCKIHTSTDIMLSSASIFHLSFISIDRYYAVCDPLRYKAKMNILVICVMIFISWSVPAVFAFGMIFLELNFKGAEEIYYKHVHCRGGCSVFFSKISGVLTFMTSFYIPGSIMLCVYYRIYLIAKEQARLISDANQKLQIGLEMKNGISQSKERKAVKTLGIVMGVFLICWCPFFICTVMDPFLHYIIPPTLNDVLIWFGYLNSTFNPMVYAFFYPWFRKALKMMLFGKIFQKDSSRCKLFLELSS

[4] = cells; assay type: functional, cell-based; remark: listed apart in the source
[5] = cells; assay type: functional, cell-based; remark: listed apart in the source
[6] = target: T2, Trace amine-associated receptor 1; experiment: Counterscreen for agonists of the human trace amine associated receptor 1 (hTAAR1): Fluorescence-based cell-based high throughput dose response assay to identify hTAAR1 agonist that also desensitize TAAR1 receptor response.; assay type: functional
[7] = target: T3, Corticotropin-releasing factor receptor 2/Corticotropin-releasing factor-binding protein (Homo sapiens, UniProt P24387+Q13324); experiment: Dose Response confirmation of uHTS hits for small molecule antagonists of the CRF-binding protein and CRF-R2 receptor complex.; assay type: functional; settings: read-out: IC50_Mean
T3 sequence (Q13324 whole entry): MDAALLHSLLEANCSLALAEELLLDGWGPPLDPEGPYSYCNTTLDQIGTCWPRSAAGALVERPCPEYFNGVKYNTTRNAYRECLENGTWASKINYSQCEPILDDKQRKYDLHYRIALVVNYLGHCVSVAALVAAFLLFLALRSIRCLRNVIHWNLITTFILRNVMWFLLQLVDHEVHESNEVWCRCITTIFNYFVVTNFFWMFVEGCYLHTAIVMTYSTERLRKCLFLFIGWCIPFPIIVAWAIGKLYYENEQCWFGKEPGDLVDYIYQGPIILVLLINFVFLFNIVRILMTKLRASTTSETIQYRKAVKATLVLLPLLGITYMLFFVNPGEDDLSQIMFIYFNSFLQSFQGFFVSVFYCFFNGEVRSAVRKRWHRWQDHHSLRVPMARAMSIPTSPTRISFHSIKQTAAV
T3 sequence (P24387 whole entry): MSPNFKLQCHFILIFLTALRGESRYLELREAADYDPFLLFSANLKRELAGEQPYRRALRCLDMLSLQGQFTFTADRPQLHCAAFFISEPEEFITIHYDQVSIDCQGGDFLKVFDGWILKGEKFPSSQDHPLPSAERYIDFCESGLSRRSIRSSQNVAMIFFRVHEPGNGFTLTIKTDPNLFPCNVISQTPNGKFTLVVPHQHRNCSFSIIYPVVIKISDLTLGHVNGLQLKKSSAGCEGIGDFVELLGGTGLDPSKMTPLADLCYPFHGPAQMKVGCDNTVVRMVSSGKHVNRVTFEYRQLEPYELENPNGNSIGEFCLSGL

[8] = target: T3, Corticotropin-releasing factor receptor 2/Corticotropin-releasing factor-binding protein; experiment: activators of CRF receptor 2 with binding protein – uHTS hits, confirmation (AID 602473); assay type: functional; settings: read-out: EC50_Mean
[9] = target: fMet-Leu-Phe receptor (Homo sapiens, UniProt P21462); experiment: formyl peptide receptor binders – dose response (AID 519); assay type: functional
[10] = target: NS3 (Hepatitis C virus, UniProt A3EZJ3); experiment: PubChem AID 2173; parameters: species or system Hepacivirus hominis
[11] = target: Induced myeloid leukemia cell differentiation protein Mcl-1 (Homo sapiens, UniProt Q07820); assay type: functional
[12] = target: Albumin (Bos taurus, UniProt P02769); experiment: Counterscreen for inhibitors of T-cell receptor (TCR)-CD3 interaction: Fluorescence-based biochemical high throughput dose response assay to identify inhibitors of T-cell receptor (TCR)-CD3 interaction using a TAMRA-labeled BSA probe.; assay type: functional
[13] = general mammalian cell viability loss – activator set, cherry-pick, cytotoxicity control for miR-122 modulator project, dose response (AID 720690); assay type: functional, cell-based;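 further: HEK293T human cells scored for general mammalian cytotoxicity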
[14] = reduced cellular PGC1a acetyl-lysine signal – cell-based, cherry-picked samples, dose response (AID 720514); assay type: functional;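 further: potency may reflect raised or lowered acetylation signal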
[15] = activation of miR-122 Renilla sensor silencing – cell-based, Huh7 psiCHECK-miR122, Renilla luciferase, cherry-picked, dose response (AID 651956); assay type: functional;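 further: huh7 hepatoma cells stably carrying a psiCHECK-2 miR-122 sensor plasmid; renilla luciferase signal reporting endogenous miR-122 activity after 48 h compound exposure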
[16] = general mammalian cell viability loss – inhibitor set, cherry-pick, set 2, cytotoxicity control for miR-122 modulator project, dose response (AID 720697); assay type: functional, cell-based
[17] = non-specific 3'UTR reporter inhibition in Clone20-Shn3RL – cell-based, Renilla luciferase, cherry-picked, counter-screen for Shn3 inhibitor project, dose response (AID 624133); assay type: functional
[18] = test system: HEK293; experiment: EBV LMP1 TES2 canonical NF-kB signalling blockers – cell-based, HEK293, luciferase, cherry-pick, dose response (AID 588343); assay type: functional; settings: Homo sapiens
[19] = loss of viability in HepG2 cells – cell-based, CellTiter-Glo, cherry-picked, cytotoxicity control for Shn3 inhibitor project, dose response (AID 624134); assay type: functional
[20] = reduction of Shn3 3'UTR-driven luciferase in osteoblasts – cell-based, Clone20 osteoblasts, firefly luciferase, cherry-picked, dose response (AID 624132); assay type: functional;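 further: firefly luciferase luminescence from reporter carrying the Shn3 3'UTR in osteoblasts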
[21] = potency of ADAM10 substrate cleavage blockers – biochemical, QFRET, dose response (AID 743254);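 further: ADAM10 enzyme with the DM2 quenched FRET peptide as substrate; EDANS fluorescence gain as the protease cuts the substrate; inhibitor potency against ADAM10 proteolytic activity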
[22] = target: Disintegrin and metalloproteinase domain-containing protein 17 (Homo sapiens, UniProt P78536); experiment: inhibition of ADAM17 substrate cleavage – biochemical, quenched FRET substrate, counter-screen for ADAM10 exosite inhibitor project, dose response (AID 743253)
[23] = target: Paired box protein Pax-8 (Homo sapiens, UniProt Q06710); experiment: PAX8 transcriptional activity inhibition in RMG-I – RMG-I cells, luciferase, cherry-pick, dose response (AID 687027); assay type: functional, cell-based;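 further: luciferase reporter driven by Pax8 target thyroperoxidase promoter measured by SteadyGlo luminescence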
[24] = IGROV1 cell killing – plate reader, dry powder samples, PAX8 inhibitor project, dose response (AID 743043); assay type: functional, cell-based; settings: IGROV-1
[25] = OVCAR-3 cell viability loss – plate reader, dry powder samples, PAX8 inhibitor project, dose response (AID 743044); assay type: functional, cell-based
[26] = OVCAR8 cell viability loss – plate reader, dry powder samples, PAX8 project, dose response (AID 743197); assay type: functional, cell-based; settings: OVCAR-8
[27] = T. cruzi growth inhibition in host cells, dose response, cell-based, plate reader, dry powder, set 2 (AID 652275); assay type: functional
[28] = inhibitors of TRPM1-promoter reporter in SK-MEL-5 – cell-based, luciferase, dry powder, set 8, MITF inhibitor project, dose response (AID 624430); assay type: functional
[29] = MITF Orthogonal Assay: SK-MEL-5 CTG Assay Measured in Cell-Based System Using Plate Reader - 2084-02_Inhibitor_Dose_DryPowder_Activity_Set7.; assay type: functional
[30] = MITF: Counter assay: A375 proliferation Measured in Cell-Based System Using Plate Reader - 2084-03_Inhibitor_Dose_DryPowder_Activity_Set8.; assay type: functional; settings: A-375
[31] = viability loss in MITF-independent A375 cells – cell-based, CellTiter-Glo luminescence, dry powder, set 2, counter-screen for MITF inhibitor project, dose response (AID 624489); assay type: functional; settings: A-375;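 further: actives are compounds lowering A375 viability meaning general cytotoxicity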
[32] = cytotoxicity in MITF-independent A375 cells – cell-based, CellTiter-Glo luminescence, dry powder, set 4, counter-screen for MITF inhibitor project, dose response (AID 624364); assay type: functional; settings: A-375;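 further: A375 melanoma cells are MITF independent so this is a counter screen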
[33] = Dd2 parasite growth inhibition in erythrocytes – SYBR Green, dry powder samples, set 9, dose response (AID 1159568); assay type: functional, cell-based
[34] = IC50 of insulin release inhibition, rat insulinoma INS-1E line, 5 mM glucose, cell-based (AID 1117331); assay type: functional

Paired box protein Pax-8, sequence (Q06710 whole entry): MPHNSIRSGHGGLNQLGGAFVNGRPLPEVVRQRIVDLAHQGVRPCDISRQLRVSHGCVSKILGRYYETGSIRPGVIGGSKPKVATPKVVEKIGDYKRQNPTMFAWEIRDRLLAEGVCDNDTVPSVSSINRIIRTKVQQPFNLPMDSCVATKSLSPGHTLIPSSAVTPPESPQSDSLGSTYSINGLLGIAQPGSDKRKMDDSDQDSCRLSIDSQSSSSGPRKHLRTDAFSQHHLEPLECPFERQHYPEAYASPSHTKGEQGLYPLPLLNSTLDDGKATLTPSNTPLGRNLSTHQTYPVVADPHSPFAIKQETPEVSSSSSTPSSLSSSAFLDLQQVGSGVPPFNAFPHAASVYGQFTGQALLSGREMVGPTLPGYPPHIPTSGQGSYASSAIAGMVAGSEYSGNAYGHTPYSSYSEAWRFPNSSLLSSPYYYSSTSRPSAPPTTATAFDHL
Albumin, sequence (P02769 whole entry): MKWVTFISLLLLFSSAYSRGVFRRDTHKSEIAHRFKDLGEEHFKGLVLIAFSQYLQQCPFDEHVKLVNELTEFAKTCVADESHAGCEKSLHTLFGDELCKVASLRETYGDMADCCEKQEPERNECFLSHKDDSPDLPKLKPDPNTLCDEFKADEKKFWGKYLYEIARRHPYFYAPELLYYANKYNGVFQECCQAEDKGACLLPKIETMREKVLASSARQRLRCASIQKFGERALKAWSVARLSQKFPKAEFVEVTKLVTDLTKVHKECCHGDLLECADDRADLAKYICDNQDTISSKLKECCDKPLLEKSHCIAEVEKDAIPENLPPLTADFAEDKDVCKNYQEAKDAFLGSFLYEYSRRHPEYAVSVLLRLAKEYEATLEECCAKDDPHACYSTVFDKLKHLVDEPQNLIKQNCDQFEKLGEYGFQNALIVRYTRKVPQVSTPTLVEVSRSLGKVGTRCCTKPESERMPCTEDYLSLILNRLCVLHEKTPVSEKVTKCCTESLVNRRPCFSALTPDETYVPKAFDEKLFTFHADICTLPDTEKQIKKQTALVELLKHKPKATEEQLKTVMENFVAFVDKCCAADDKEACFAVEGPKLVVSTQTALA
Disintegrin and metalloproteinase domain-containing protein 17, sequence (P78536 whole entry, the tested form may be a part): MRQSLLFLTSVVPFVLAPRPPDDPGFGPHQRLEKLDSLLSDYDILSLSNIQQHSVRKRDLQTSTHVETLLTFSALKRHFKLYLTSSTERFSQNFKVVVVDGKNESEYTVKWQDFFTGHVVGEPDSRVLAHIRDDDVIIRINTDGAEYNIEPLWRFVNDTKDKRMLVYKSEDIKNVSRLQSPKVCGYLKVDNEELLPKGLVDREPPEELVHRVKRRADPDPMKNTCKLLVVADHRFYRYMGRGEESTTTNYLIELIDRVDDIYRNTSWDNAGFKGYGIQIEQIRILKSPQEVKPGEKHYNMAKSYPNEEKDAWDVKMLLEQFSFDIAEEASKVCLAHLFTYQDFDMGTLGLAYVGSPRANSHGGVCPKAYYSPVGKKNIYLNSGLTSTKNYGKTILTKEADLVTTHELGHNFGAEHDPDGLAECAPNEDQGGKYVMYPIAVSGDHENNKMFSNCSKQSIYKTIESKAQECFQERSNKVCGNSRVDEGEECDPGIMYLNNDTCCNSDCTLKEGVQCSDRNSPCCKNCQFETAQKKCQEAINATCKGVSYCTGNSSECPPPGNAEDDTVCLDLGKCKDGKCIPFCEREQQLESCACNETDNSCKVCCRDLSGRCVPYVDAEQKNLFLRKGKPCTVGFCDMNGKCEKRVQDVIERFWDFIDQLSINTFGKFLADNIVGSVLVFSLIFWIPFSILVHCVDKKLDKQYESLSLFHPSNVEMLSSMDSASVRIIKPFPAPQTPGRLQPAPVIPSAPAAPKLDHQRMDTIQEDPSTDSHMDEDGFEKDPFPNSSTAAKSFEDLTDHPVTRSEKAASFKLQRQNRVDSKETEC
NS3, sequence (A3EZJ3 whole entry): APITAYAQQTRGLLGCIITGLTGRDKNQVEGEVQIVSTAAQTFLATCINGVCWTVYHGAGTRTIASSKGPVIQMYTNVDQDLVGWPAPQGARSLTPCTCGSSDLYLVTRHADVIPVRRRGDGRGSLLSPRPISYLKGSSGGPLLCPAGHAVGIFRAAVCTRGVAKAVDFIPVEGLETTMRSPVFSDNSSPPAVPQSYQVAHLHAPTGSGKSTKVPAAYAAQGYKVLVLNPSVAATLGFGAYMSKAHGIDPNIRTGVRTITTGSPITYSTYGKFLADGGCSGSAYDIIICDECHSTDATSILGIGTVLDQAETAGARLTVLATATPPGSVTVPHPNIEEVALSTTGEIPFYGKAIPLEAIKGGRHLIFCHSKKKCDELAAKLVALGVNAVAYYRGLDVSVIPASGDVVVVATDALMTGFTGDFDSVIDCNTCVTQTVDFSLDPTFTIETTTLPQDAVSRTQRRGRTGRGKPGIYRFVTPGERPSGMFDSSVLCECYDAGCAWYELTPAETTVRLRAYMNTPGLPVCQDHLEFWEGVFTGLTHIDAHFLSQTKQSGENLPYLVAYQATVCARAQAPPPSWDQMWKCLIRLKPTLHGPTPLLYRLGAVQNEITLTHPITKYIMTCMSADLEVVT
fMet-Leu-Phe receptor, sequence (P21462 whole entry): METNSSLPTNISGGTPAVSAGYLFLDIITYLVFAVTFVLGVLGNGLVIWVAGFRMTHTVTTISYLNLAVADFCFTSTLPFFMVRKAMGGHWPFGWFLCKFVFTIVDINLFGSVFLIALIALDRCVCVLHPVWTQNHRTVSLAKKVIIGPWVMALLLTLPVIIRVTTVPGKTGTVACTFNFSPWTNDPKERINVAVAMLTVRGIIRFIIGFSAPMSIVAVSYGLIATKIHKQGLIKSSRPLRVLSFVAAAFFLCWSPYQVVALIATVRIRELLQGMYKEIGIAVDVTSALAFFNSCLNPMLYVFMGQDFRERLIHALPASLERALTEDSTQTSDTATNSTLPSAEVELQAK
Induced myeloid leukemia cell differentiation protein Mcl-1, sequence (Q07820 whole entry): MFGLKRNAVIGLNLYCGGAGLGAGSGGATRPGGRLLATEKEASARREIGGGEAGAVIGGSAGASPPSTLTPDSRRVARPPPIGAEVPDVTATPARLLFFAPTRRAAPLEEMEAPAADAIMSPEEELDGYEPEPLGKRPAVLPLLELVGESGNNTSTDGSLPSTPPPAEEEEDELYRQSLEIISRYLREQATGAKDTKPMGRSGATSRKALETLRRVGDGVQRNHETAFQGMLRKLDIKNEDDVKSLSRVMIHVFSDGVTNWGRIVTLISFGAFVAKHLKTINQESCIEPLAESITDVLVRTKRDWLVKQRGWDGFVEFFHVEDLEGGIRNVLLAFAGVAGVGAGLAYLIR

SMILES: O=C(Nc1ncccc1O)c1ccc(S(=O)(=O)N2CCCCCC2)cc1
- IC50 [1]: 31.7 µM (inactive)
- IC50 [2]: > 67.5 µM (inactive)

SMILES: CN1C(=O)C(=CN2CCN(C(=O)c3ccco3)CC2)C(=O)N(C)C1=S
- EC50 [3]: 4.85 µM (active)
- EC50 [4]: > 29.9 µM (inactive)
- IC50 [5]: > 29.9 µM (inactive)
- IC50 [6]: > 29.9 µM (inactive)

SMILES: Cn1ccc(C(=O)Nc2sc3c(c2C(N)=O)CCCCC3)n1
- IC50 [1]: > 2.5 µM (active)
- IC50 [7]: > 47.1 µM (inactive)
- EC50 [8]: > 53 µM (inactive)
- IC50 [2]: > 67.5 µM (inactive)

SMILES: O=C(C1=C(O)C(=O)N(CCOCCO)C1c1cccs1)c1cccs1 (stereo unspecified)
- Ki [9]: 21.4 µM (inactive)

SMILES: Nc1c(C(=O)NCC2CCCO2)sc2nc3c(c(-c4ccco4)c12)CC/C3=C\c1ccco1 (stereo unspecified)
- IC50 [10]: 3.91 µM (active)
- IC50 [11]: 1.22 µM (active)
- IC50 [12]: > 94.1 µM (inactive)

SMILES: COc1ccccc1CC(=O)NCCc1ccccc1
- EC50 [3]: 3.18 µM (active)
- EC50 [4]: > 29.9 µM (inactive)
- IC50 [5]: > 29.9 µM (inactive)
- IC50 [6]: 9 µM (active)

SMILES: CCN1CCN(Cc2ccc(NC(=O)c3ccc(C)c(NC(=O)c4cnc5cc(C(F)(F)F)ccc5c4O)c3)cc2C(F)(F)F)CC1
- AC50 [13]: 4.48 µM (active)
- AC50 [14]: 5.48 µM (active)
- AC50 [15]: 5.11 µM (active)
- AC50 [16]: 4.86 µM (active)
- AC50 [17]: 6.23 µM (active)
- AC50 [18]: 2.74 µM (active)
- AC50 [19]: 5.71 µM (active)
- AC50 [20]: 3.13 µM (active)

SMILES: CC(O)(c1cccc(F)c1)c1nc(/C=C/c2ccccc2)cs1 (stereo unspecified)
- IC50 [21]: 25 µM (inactive)
- IC50 [22]: > 69.5 µM (inactive)

SMILES: CC1(Cc2ccc(Cl)c(Cl)c2)C(=O)Nc2ccc(S(=O)(=O)NC3CCCCC3)cc21 (stereo unspecified)
- IC50 [21]: 8.03 µM (active)
- IC50 [22]: > 69.5 µM (inactive)

SMILES: COc1cc(OC)cc(C(=O)N/N=C/c2ccc(OC)c(COc3ccc4ccccc4c3)c2)c1
- IC50 [12]: > 94.1 µM (inactive)

SMILES: C[C@H](CO)N1C[C@H](C)[C@H](CN(C)C(=O)NC2CCCCC2)Oc2cc(C#Cc3ccc(F)cc3)ccc2S1(=O)=O
- AC50 [14]: 12.8 µM (active)
- AC50 [23]: 7.83 µM (active)

SMILES: C[C@@H]1CN([C@@H](C)CO)C(=O)c2cc(NC(=O)Nc3ccc(C(F)(F)F)cc3)ccc2O[C@@H](C)CCCCO[C@H]1CN(C)Cc1ccc2c(c1)OCO2
- AC50 [24]: 29 µM (active)
- AC50 [25]: 9.82 µM (active)
- AC50 [23]: 14.3 µM (active)
- AC50 [26]: 24 µM (active)

SMILES: O=C(CN1CCOCC1)N1CCCCN2[C@@H](CO)[C@H](c3ccc(-c4ccccc4F)cc3)[C@@H]2C1
- AC50 [27]: 0.84 µM (active)

SMILES: O=C1C(Nc2ccc(F)cc2F)=C(N2CCCC2)C(=O)c2ccccc21
- AC50 [28]: 0.677 µM (active)
- AC50 [29]: 2.35 µM (active)
- AC50 [30]: 8.05 µM (active)

SMILES: CC(C)N1C[C@H](C)[C@@H](CN(C)Cc2ccc(Oc3ccccc3)cc2)Oc2c(C(=O)Nc3ccncc3)cccc2C1=O
- AC50 [27]: 0.167 µM (active)

SMILES: O=C(NC1=C(N2CCOCC2)C(=O)c2ccccc2C1=O)c1ccccc1
- AC50 [31]: 31.9 µM (active)
- AC50 [32]: 34.6 µM (active)

SMILES: O=C(NC1=C(N2CCSCC2)C(=O)c2ccccc2C1=O)c1ccccc1
- AC50 [31]: 26.9 µM (active)
- AC50 [32]: 40.7 µM (active)

SMILES: O=C1C(Nc2ccc(Cl)c(Cl)c2)=C(N2CCCC2)C(=O)c2ccccc21
- AC50 [28]: 8.91 µM (active)
- AC50 [29]: 29.2 µM (active)
- AC50 [30]: > 70 µM (inactive)

SMILES: N#C[C@@H]1[C@H](c2ccccc2C2=CCCCC2)[C@H](CO)N1S(=O)(=O)c1ccccc1
- AC50 [33]: 13.1 µM (active)

SMILES: CC(C(O)c1ccccc1)N(C)CCOC(c1ccccc1)c1ccccc1 (stereo unspecified) [DIFETEROL]
- IC50 [34]: > 33.3 µM (inactive)
